Measurements taken from patent publication US8217084B2, “Medicinal products incorporating bound organosulfur groups” (Allium Vitalis Incorporated, priority 2004, dated 2012).
Entries after “also recorded” stand apart in the source; their conditions may differ. Like-named read-outs stand apart in the source and are kept apart here.

Columns and labels:
[1] = in vivo; cited from earlier work
[2] = n-octanol/water (stated for DADS); cited from earlier work
[3] = after 25 g fresh garlic or 60 mg pure allicin; cited from earlier work
[4] = cited from earlier work
[5] = Reaction with hydrogen peroxide, HPLC
Excerpt: Hydrogen peroxide (H2O2) was chosen for use as the model oxidant because it is readily available, sufficiently reactive to produce the desired effects, and sufficiently stable to be readily observed. The availability of an inexpensive real-time probe for H2O2 measurement (the ABD-3001, which could be leased by the month from Universal Sensors Inc.) was also a consideration.
The specific ability of allyl mercaptan in this regard was deemed worthy of being experimentally investigated because further experiments were planned that would rely on this ability. […] Therefore, HPLC alone was used to measure the reactants and products.
In FIG. 7, the concentrations are reported as “uM allyl” to take into account the fact that each DADS molecule contains two allyl groups, while each AllylSH molecule has only one.
Another experiment was performed at approximate body temperature (37 degrees C.) and calculated membrane AllylSH concentration.

[6] = pH dependence of reaction rate with cysteine
CYP2E1 enzyme = CYP2E1 enzyme (Rattus norvegicus, UniProt P05182); settings: cited from earlier work
Chain of CYP2E1 enzyme (P05182 whole entry): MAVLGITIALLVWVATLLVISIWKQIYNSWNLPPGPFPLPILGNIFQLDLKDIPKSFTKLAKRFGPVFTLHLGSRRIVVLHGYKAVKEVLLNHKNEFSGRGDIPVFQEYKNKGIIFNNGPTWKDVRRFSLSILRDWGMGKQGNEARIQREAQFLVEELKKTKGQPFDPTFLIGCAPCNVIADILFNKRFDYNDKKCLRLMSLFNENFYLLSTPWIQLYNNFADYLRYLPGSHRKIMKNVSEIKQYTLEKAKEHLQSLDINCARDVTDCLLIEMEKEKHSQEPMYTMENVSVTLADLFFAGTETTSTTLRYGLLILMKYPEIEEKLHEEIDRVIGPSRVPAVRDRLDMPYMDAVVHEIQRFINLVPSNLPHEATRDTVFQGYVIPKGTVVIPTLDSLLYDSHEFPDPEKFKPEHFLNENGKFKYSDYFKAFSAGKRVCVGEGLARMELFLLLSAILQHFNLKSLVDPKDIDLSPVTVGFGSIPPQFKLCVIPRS

CYP2D6 = settings: in 30 minutes; cited from earlier work
LDL = settings: cited from earlier work
[7] = cited from earlier work; remark: listed apart in the source
[8] = test system: total glutathione level of cells; settings: cited from earlier work
[9] = chemiluminescence assay; cited from earlier work
[10] = in vivo; cited from earlier work; remark: listed apart in the source
[11] = cited from earlier work; for pKa: thiol group
nematodes = settings: cited from earlier work
E-coli O157:H7 = settings: cited from earlier work
papain = target: T1, papain (Carica papaya, UniProt P00784); settings: cited from earlier work
T1 sequence (P00784 134-345): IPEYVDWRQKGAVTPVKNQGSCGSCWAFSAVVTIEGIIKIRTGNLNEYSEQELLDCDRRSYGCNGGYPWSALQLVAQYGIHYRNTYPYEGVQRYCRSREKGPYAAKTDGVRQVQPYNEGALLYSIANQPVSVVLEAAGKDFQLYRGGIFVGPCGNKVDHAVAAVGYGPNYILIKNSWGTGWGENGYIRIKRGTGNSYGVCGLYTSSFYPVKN

[12] = test system: glutathione content of cells; settings: daily dosage of 1000 mg; cited from earlier work

C=CCSSC=CC[S+]([O-])CC=C (mixture of isomers) [ajoene]
production of breath AMS and acetone [1]: produce both breath AMS and acetone

C=CCS[S+]([O-])CC=C (stereo not shown) [Allicin, DiAllylThioSulfinate]
partition coefficient [2]: 12.3
detectability in blood, urine, or stool [3]: undetectable
Reaction in Blood Half-life [4]: <1 min
Reaction in Blood Product (moles) [4]: (1.6) moles
time to metabolize to allyl mercaptan ([4]; red blood cells exposed to allicin): less than one minute

C=CCS [AllylSH, AllylThiol]
formation of diallyl disulfide ([5]; 0.85 mM AllylSH, 10 mM H2O2, 15 minute): essentially linear with time

C=CCSSCC=C [DADS, Diallyl Disulfide]
dependence of reaction rate with cysteine on pH [6]: dramatically increasing between pH 8 and 9
partition coefficient [2]: 25.0
allicin yield ([5]; 0.2 mM DADS, 0.022 mM AllylSH, 5.0 mM H2O2, 37 degrees C., 11 minutes): 0.015 mM
rate of allicin formation ([5]; 0.2 mM DADS, 5.0 mM H2O2, room temperature, no AllylSH): essentially linear with time
inhibition of CYP2E1 (CYP2E1 enzyme): potent inhibitor
Reaction in Blood Half-life [4]: 60 min
Reaction in Blood Product (moles) [4]: (0.8) moles
conversion of DADS to allicin (CYP2D6): approximately 30%
production of breath AMS and acetone [1]: produce both breath AMS and acetone

C=CCSCC=C [DAS, diallyl sulfide]
production of breath AMS and acetone [1]: only produces breath acetone

C=CCSSSCC=C [DATS, Diallyl Trisulfide]
Reaction in Blood Half-life [4]: 4 min
Reaction in Blood Product (moles) [4]: (0.8) moles
production of breath AMS and acetone [1]: produce both breath AMS and acetone

C=CCSC[C@H](NC(C)=O)C(=O)O [N-acetyl-S-allylcysteine]
effect on Cu2+ induced LDL oxidation (LDL): significantly reduce

C=CCSC[C@H](N)C(=O)O [SAC, S-allylcysteine]
effect on Cu2+ induced LDL oxidation (LDL): significantly reduce
production of breath AMS and acetone [1]: produces no breath AMS or acetone

C=CCSSC[C@H](N)C(=O)O [SAMC, S-AllylMercaptoCysteine]
protection from acetaminophen poisoning ([7]; post treatment, single dose 200 mg/kg): protective
protection from acetaminophen poisoning ([7]; pretreatment): protect mice from acetaminophen poisoning
total glutathione level of cells [8]: significantly increase the total glutathione level of cells; also recorded: significant increases the total glutathione level of cells
effect on Cu2+ induced LDL oxidation (LDL): significantly reduce
Reaction in Blood Half-life [4]: 3 min
Reaction in Blood Product (moles) [4]: (0.8) moles
antioxidant or pro-oxidant activity [9]: most effective antioxidants
bioavailable (ingested) [1]: 100%
production of breath AMS and acetone [1]: produce both breath AMS and acetone

Cc1c(C)c2c(c(C)c1O)CC[C@@](C)(CCC[C@H](C)CCC[C@H](C)CCCC(C)C)O2 [alpha-tocopherol]
partition coefficient [2]: 550

NCCS [cysteamine]
radioprotective effect [10]: effective

N[C@@H](CS)C(=O)O [cysteine, Cysteine]
radioprotective effect [10]: effective
pKa [11]: approximately 8.5
pKa ([11]; listed as CySH): 8.44

CCCS[S+]([O-])CCC (stereo not shown) [dipropylthiosulfinate]
nematicidal activity (nematodes): most effective compound found

N[C@@H](CCC(=O)N[C@@H](CS)C(=O)NCC(=O)O)C(=O)O [glutathione, Glutathione]
radioprotective effect [10]: effective
pKa of transformation to thiazoline form [11]: 5.3
pKa [11]: approximately 8.5
antioxidant or pro-oxidant activity [9]: most effective antioxidants

N[C@@H](CCS)C(=O)O [homocysteine]
radioprotective effect [10]: effective

C=CCS[S+](C)[O-] (stereo not shown) [methyl allyl thiosulfinate]
activity against E-coli O157:H7 (E-coli O157:H7): effective against E-coli O157:H7

CS[S+](C)[O-] (stereo not shown) [methyl methane thiosulfinate]
activity against E-coli O157:H7 (E-coli O157:H7): effective against E-coli O157:H7

O=[N+]([O-])c1ccc([Se]S(=O)(=O)O)cc1 [selenosulfide, pNO2Ph-Se—SO3^−]
limit of inhibition of SH-dependent enzyme (papain): ~50%

O=C1O[C@H]([C@@H](O)CO)C(O)=C1O [vitamin C]
mean percentage decrease of glutathione [12]: 60%

S-allylcysteine sulfoxide [alliin]
effect on Cu2+ induced LDL oxidation (LDL): significantly reduce

SnO2Ph-Se—S—SO3^− [S-aryl selenenylthiosulphate]
inactivation of the enzyme (papain; by the first data point): > 90%
